This is an account of results in BindingDB's records for doi:10.1021/jm0001976 (Merck Research Laboratories, 2000).

The target in the assay is Histone deacetylase (Eimeria tenella). Briefly: Tested for Histone deacetylase enzyme inhibition assay using Eimeria tenella extract.

As for `CCC(=O)CCCCC[C@@H]1NC(=O)[C@H]2CCCCN2C(=O)[C@H]([C@@H](C)CC)NC(=O)[C@H](c2cn(OC)c3ccccc3c2=O)NC1=O`, the IC50 is 3.8 nM.

Regarding `CCC(=O)CCCCC[C@@H]1NC(=O)[C@H]2CCCCN2C(=O)[C@H]([C@@H](C)CC)NC(=O)[C@H](c2cn(CC)c3ccccc3c2=O)NC1=O`, the IC50 stood at 11 nM.

`CCC(=O)CCCCC[C@@H]1NC(=O)[C@H]2CCCCN2C(=O)[C@H]([C@@H](C)CC)NC(=O)[C@H](c2cn(C)c3ccccc3c2=O)NC1=O`: the 50% inhibitory concentration (IC50) amounted to 9 nM.

The molecule `CCCn1cc([C@@H]2NC(=O)[C@H](CCCCCC(=O)CC)NC(=O)[C@H]3CCCCN3C(=O)[C@H]([C@@H](C)CC)NC2=O)c(=O)c2ccccc21` came in with an IC50 of 28 nM.

In general, IC50 refers to the point on the concentration scale where inhibition reaches its midpoint. The low end stands for higher potency, the high end for lower potency.
